From patent publication US6399654B1, “Biflavanoids and derivatives thereof as antiviral agents” (priority 1995, dated 2002)
≈ marks a conversion by molar mass, not a printed value. Where “and” joins values, the source holds several entries; their conditions need not be identical. Equal values may be shown once. Read-outs that look alike come from different tables or passages of the source. Marks after values point to notes of the source that are not given here.

Columns and labels:
[1] = test system: Madin Darby canine kidney (MDCK) cells; details: Influenza A (H3N2) test
[2] = in vitro; details: African green monkey
[3] = test system: Influenza B Panama/45/90; experiment: microbe, parasite or virus in culture; format: cell-based; details: Influenza B virus, MDCK; Influenza B Panama/45/90; read-out: CPE Inhibition EC50
[4] = test system: Influenza A (A/NWS/33 (H1N1)); experiment: Influenza A virus infection in mice; format: in vivo, BALB/c mice
Protocol: Animals: Female 13-15 g specific pathogen-free BALB/c mice were obtained form Simonsen Laboratories (Gilroy, Calif.). They were quarantined 24 h prior to use, and maintained on Wayne Lab Blox and tap water. After being infected, their drinking water contained 0.006% oxytetracycline (Pfizer, New York, N.Y.) to control possible secondary bacterial infections.
Virus: A/NWS/33 (H1N1) was obtained from K. W. Cochran, Univ. of Michigan (Ann Arbor, Mich.). A virus pool was prepared in MDCK cells; this was titrated in mice, ampuled, and stored at −80° C. until used.
Compounds: Robustaflavone was stored at room temperature until used. Ribavirin, used as a positive control, was obtained from ICN Pharmaceuticals (Costa Mesa, Calif.). Vehicles considered included DMSO (Sigma Chemical Co., St. Louis, Mo.), DMF (Sigma), PEG M. W. 200 (Aldrich Chemical Co. Milwaukee, Wis.), 0.4% CMC (Sigma) and 1-methyl-2-pyrrolidinone (MPD, Aldrich).
Arterial Oxygen Saturation (SaO2) Determinations: SaO2 was determined using the Ohmeda Blox 3740 pulse oximeter (Ohmeda, Louisville, Ohio)). The ear probe attachment was used, the probe placed on the thigh of the animal, with the slow instrument mode selected. Readings were made after a 30 second stabilization time on each animal. Use of this device for measuring effects of influenza virus on arterial oxygen saturation have been described.^72
Lung Virus Determinations: Each mouse lung was homogenized and varying dilutions assayed in triplicate for infectious virus in MDCK cells as described previously.^73
4. Effect of robustaflavone in CMC or in DMSO on influenza virus infection in mice. In the study with CMC, robustaflavone was used in dosages of 200 and 100 mg/kg/day; using DMSO vehicle, the dosages were 75 and 37.5 mg/kg/day, with the compound administered i.p. twice daily for 5 days beginning 4 h pre-virus exposure. The mice were used in each dose to monitor effects on SaO2 and death; from an additional group of similarly infected and treated mice, 3 animals were killed on days 3, 5, 7 and 9 to assay for lung score (0=normal, 4=maximal consolidation), weight, and virus titer. Three to four mice were used as toxicity controls, which were weighed prior to treatment and again 18 h after treatment termination, and deaths noted daily. […] Three sets of virus controls were used: Infected-untreated, infected-treated with CMC only, and infected-treated with DMSO only. Twenty animals were used in each of these control groups to monitor SaO2 and death, with 3 additional mice taken in parallel with treated animals to determine effects on lung consolidation and virus titer. Two sets of normal controls were used; one group of three mice was weighed and held in parallel with the toxicity controls. From the second group three mice were killed on days 3 and 9 for comparison of lung score and weight.
Statistical Evaluation: Increase in survivor number was evaluated using chi square analysis with Yates' correction. Mean survival time increases, virus titer and SaO2 value differences were analyzed by t-test. Lung consolidation scores were evaluated by ranked sum analysis.

[5] = test system: Influenza A (H3N2) Beijing/32/92; experiment: microbe, parasite or virus in culture; format: cell-based, influenza A virus; details: Influenza A virus, MDCK; Influenza A (H3N2) Beijing/32/92; read-out: Neutral Red EC50
[6] = Cytotoxicity by neutral red dye uptake, A549 cells; details: human
[7] = target: T1, HIV-1 RT (Human immunodeficiency virus type 1 group M subtype B, UniProt P03366); experiment: Anti-HIV-1 RT assay (recombinant enzyme); format: biochemical
T1 construct: made in house; host or cells: Escherichia coli

[8] = Cytotoxicity in uninfected PHA-stimulated human PBM cells; details: human
[9] = test system: 2.2.15 cells; experiment: HBV cytotoxicity assay, neutral red dye uptake in 2.2.15 cells; format: cell-based; details: Homo sapiens, read-out: IC50 (toxicity, neutral red dye uptake)
Protocol: The toxicity of the test compounds in cultures of 2.2.15 cells, grown to confluence in 96-well flat-bottomed tissue culture plates and treated with compounds as described above, were assayed at four concentrations each in triplicate cultures, in 3 to 10-fold steps. Untreated control cultures were maintained on each plate. On each plate, wells containing no cells were used to correct for light scattering.
Stock solutions of text drugs were prepared in DMSO.

[10] = test system: HSV-2; experiment: HSV-2 CPE inhibition in HFF cells; details: for HSV-2 SI (CC50/EC50): HFF Cells
[11] = test system: Influenza B Panama/45/90; experiment: microbe, parasite or virus in culture; format: cell-based; details: Influenza B virus, MDCK, read-out: Neutral Red EC50
[12] = in vitro; details: dog
[13] = test system: Adenovirus Type 5; experiment: Adenovirus type 5 neutral red dye uptake in A549 cells; format: cell-based; details: Human mastadenovirus C, A549; Adenovirus Type 5; read-out: Neutral Red EC50
[14] = test system: HCMV; experiment: HCMV CPE inhibition in HFF cells
[15] = test system: Parainfluenza Type 3 Virus; experiment: organism not typed; format: cell-based; details: MA104; Parainfluenza Type 3 Virus; read-out: CPI Inhibition EC50
[16] = test system: Measles Virus; experiment: Measles virus neutral red dye uptake in BSC-1 cells; format: cell-based; details: Measles morbillivirus, BSC-1
[17] = test system: Measles Virus; experiment: microbe, parasite or virus in culture; format: cell-based; details: Measles morbillivirus, BSC-1; Measles Virus; read-out: CPI Inhibition EC50
[18] = robustaflavone in 0.4% CMC, 200 mg/kg/day i.p. bid × 5
[19] = robustaflavone in 0.4% CMC, 1005 mg/kg/day (so in the source) i.p. bid × 5
[20] = robustaflavone in DMSO, 37.5 mg/kg/day i.p. bid × 5
[21] = robustaflavone in DMSO, 75 mg/kg/day i.p. bid × 5

## O=c1cc(-c2ccc(O)c(-c3c(O)cc4oc(-c5ccc(O)cc5)cc(=O)c4c3O)c2)oc2cc(O)cc(O)c12 [Robustaflavone (3), robustaflavone]
[1]
  CPE Inhibition IC50 (cytotoxic): ˜32 ug/mL
[2]
  IC50: < 14 µg/mL
[3]
  EC50: 0.23 µg/mL (≈ 0.427 µM)
[4]; [18]
  Infected, Treated MST: 11.1 days
  Infected, Treated Mean SaO2: 84.6%
  Infected, Treated Surv/Total: 0/9
[4]; [19]
  Infected, Treated MST: 9.8 days
  Infected, Treated Mean SaO2: 85.1** %
  Infected, Treated Surv/Total: 0/10
[4]; [20]
  Infected, Treated MST: 8.0 days
  Infected, Treated Mean SaO2: 73.8%
  Infected, Treated Surv/Total: 0/10
[4]; [21]
  Infected, Treated MST (mean survival time): 3.2 days
  Infected, Treated Mean SaO2 (mean of days 3-10): 70.6%
[4]; robustaflavone in DMSO, 75 mg/kg/day i.p. bid × 5 beg −4 h pre-virus
  Infected, Treated Surv/Total: 0/9
[5]
  EC50: 1.8 µg/mL (≈ 3.34 µM)
[6]
  IC50: 102 µg/mL (≈ 189 µM)
[7]; Anti-HIV-1 RT IC50, values in parentheses or in words
  IC50: 65 µM
[7]; HIV-1 RT IC50 (50% inhibition dose)
  IC50: 62.6 µM and 65.4 µM
[7]; read-out: Anti-HIV-1 RT % Inhibition at 200 μg/ml
  inhibition at 200 µg/mL: 91.4%
[8]
  IC50: 77 µM
[9]
  IC50: 337 µM
[10]; listed as Robustaflavone(3)
  HSV-2 SI (CC50/EC50): >11.8
[10]; listed as robustaflavone (3)
  HSV-2 SI (CC50/EC50): > 11.8
[10]; Human alphaherpesvirus 2, HFF, read-out: HSV-2 CPE Inhibition EC50
  EC50: 8.5 µg/mL (≈ 15.8 µM)
[11]
  EC50: 0.22 µg/mL (≈ 0.409 µM)
[12]; CPE Inhibition IC50 (50% cell inhibitory (cytotoxic) concentration), Influenza A (H1N1) test
  IC50: 18 µg/mL (≈ 33.4 µM)
[12]; CPE Inhibition IC50 (cytotoxic), Influenza A (H3N2) test
  IC50: 32 µg/mL (≈ 59.4 µM)
[12]; CPE Inhibition IC50 (cytotoxic), Influenza B test
  IC50: ~100 µg/mL (≈ 186 µM)
[13]
  EC50: > 100 µg/mL
[14]; HFF Cells
  HCMV SI (CC50/EC50): >1.8
[14]; Human betaherpesvirus 5, HFF, read-out: HCMV CPE Inhibition EC50
  EC50: 54.8 µg/mL (≈ 102 µM)
[15]
  EC50: > 100 µg/mL
[16]
  EC50: < 30 µg/mL
[17]
  EC50: < 14 µg/mL
